# Legend:
# [1] = system: orthotopic intracranial GL261 cell tumours; design: method as in PMID 26636389; conditions: cited from earlier work
# U87 cell xenograft = system: U87 cell xenograft; design: method as in PMID 26636389; conditions: U87 cell xenograft model; cited from earlier work
# [2] = system: subcutaneous GL2612 tumour; design: method as in PMID 29993291; conditions: with TMZ; mice; cited from earlier work
# C6 orthotopic glioma = system: C6 orthotopic glioma; design: method as in PMID 29993291; conditions: with TMZ; C6 orthotopic rat model of glioma; cited from earlier work
# [3] = system: tumour-infiltrating lymphocytes in GL261(luc2) glioblastomas; assay: Immune response profiling of tumour-infiltrating lymphocytes by FACS; assay type: in vivo, C57BL/6J mice; conditions: day 16, AT-0174 […] mg/kg PO, TMZ 8 mg/kg IP
# From the text: On day 16 post-tumour inoculation, satellite animals from each experimental group were euthanized, and tumours were collected. Tumours were processed for organ dissociation using the GentleMACS system (Miltenyi Biotec) and myelin debris removal and homogenate purification through a Percoll gradient. Tumour homogenates were then processed for immunostaining and profiling analysis by flow cytometry for the lymphoid component according to a marker panel including CD45, CD3, CD4, CD8, IFNγ, CD25, and FoxP3. For IFNγ, homogenate samples were first stimulated with a cocktail of Phorbol 12-myristate 13-acetate, Ionomycin and Brefeldin A. Briefly, to assess viability, cells were stained with LIVE/DEAD Zombie NIR (Biolegend). For simultaneous detection of the intracellular molecule, after fixed, cells were permeabilized with Foxp3 transcription factor staining buffer set according to the manufacturer’s protocol (eBioscience). All flow antibodies were obtained from BioLegend.
# [4] = Body weight in orthotopic glioblastoma mice; assay type: in vivo, C57BL/6J mice; conditions: repeated treatment; AT-0174 […] mg/kg PO; TMZ 8 mg/kg IP; compared to vehicle
# From the text: Starting from day 6 after tumour cell inoculation, all mice were monitored in vivo until Day 55 for tumour growth (assessed by bioluminescence and measured on days 6, 14, 21, 28, 35, 42, and 49), body weight (monitored 3 times per week until day 18, and then daily from day 19–55), and survival.
smiles,measurement,setting,value
"Cn1cc(C[C@H](N)C(=O)O)c2ccccc21 [1-MT, 1-methyltryptophan]",Survival duration,"[1]; TMZ in combination with 1-MT, compared to TMZ alone",slight increase in the survival duration
same,Efficacy when given alone,"[1]; orthotopic GL261 model, given alone",ineffective
same,Efficacy when given alone,U87 cell xenograft,ineffective
Cc1ccc(NC(=O)Nc2cc(-c3ccccc3-c3nn[nH]n3)ccc2N(CC(C)C)CC(C)C)cc1 [PCC0208009],Subcutaneous tumour growth,[2],significantly synergised with TMZ
same,Survival,C6 orthotopic glioma,improved survival
"Cn1nnc2c(C(N)=O)ncn2c1=O [TMZ, Temozolomide]",Cytotoxic CD8+ T cells in tumour,[3]; vs control,non-significant increase
same,Tregs (CD4+CD25+FoxP3+ cells) in tumour,[3]; vs vehicle control,higher
same,Effect on body weight,[4],mild (though non-significant) drop in body weight

# From publication PMC11267968 (BMC Cancer, 2024)
